Test [1] has as its target T1, mTOR (Homo sapiens, UniProt P42345).
T1 construct: N-terminal GST tag (amino acid 1360-2549, molecular weight=163.9 kDa); GST (N); host or cells: insect cells
The test is described as follows: mTOR kinase activity, 32P-ATP P81 filter-binding method. The format is biochemical. Particulars: 3 μM 4EBP1 and 10 μM ATP; read-out: IC50 of mTOR enzyme activity. As for the experimental part:
The activity of the test compounds of the present invention on mTOR kinase was tested by the test method below.
Reaction Buffer: 20 mM Hepes (pH 7.5), 10 mM MgCl2, 2 mM MnCl2, 1 mM EGTA, 0.02% Brij35, 0.02 mg/mL BSA, 0.1 mM Na3VO4, 2 mM DTT, 2% DMSO.
Enzyme for reaction: humanized recombinant mTOR fragment with a N-terminal GST tag (amino acid 1360-2549, molecular weight=163.9 kDa), expressed in insect cells.
Reaction Substrate: humanized recombinant full-length 4EBP1 with a N-terminal His tag (molecular weight=13.6 kDa), expressed in bacteria;
Reaction conditions: 3 μM 4EBP1 and 10 μM ATP.
1. The reaction substrate and other reaction factors were added to the freshly prepared reaction buffer.
2. The kinase was added to the substrate reaction and gently mixed.
3. The compound dissolved in 100% DMSO was transferred into the kinase reaction solution using Acoustic technology (Echo 550; nanoliter rang) and then incubated at room temperature for 20 min.
4. An appropriate concentration of ^32P-ATP was add to the reaction system.
5. It was incubated at room temperature for 2 hours.
6. Kinase activity was detected by the P81 filter-binding method.

The target of test [2] is PI3Kγ (Homo sapiens, UniProt P48736). The test is described as follows: ADP-Glo Assay II, PI3Kγ. As to conditions: read-out: IC50 for inhibition of PI3Kγ activity. Format: biochemical. The method, then: (§1) 1) The compound was diluted using Echo from Labcyte company, 50 nL of the compound was transferred into an assay plate, and centrifuged at a speed of 1000 rpm for 10 sec.
(§2) 2) A kinase/lipid substrate mixed solution and a kinase reaction buffer/lipid substrate mixed solution were prepared; the kinase/lipid substrate mixed solution was added into columns 3-24 of the assay plate, 3 μL per well; the kinase reaction buffer/lipid substrate mixed solution was added into columns 1-2 of the assay plat, 3 μL per well; and the plate was centrifuged at a speed of 1000 rpm for 10 sec.
(§3) 3) An ATP solution was prepared, and added into the assay plate, 2 μL per well; the plate was centrifuged at a speed of 1000 rpm for 10 sec, shaken and mixed in 2nd gear mode on a plate shaker for 1 min, further centrifuged at a speed of 1000 rpm for 10 sec, and incubated for 120 min at 23° C. […]
(§4) 5) A kinase detection reagent was prepared, added into the assay plate, 10 μL per well; the plate was centrifuged at a speed of 1000 rpm for 10 sec, shaken and mixed in 2nd gear mode on a plate shaker for 1 min, further centrifuged at a speed of 1000 rpm for 10 sec, incubated for 30 min at 23° C.; and then read on the multi-marker detector Envision.
(ADP-Glo first removes unused ATP, then detects ADP through luciferase.)

The target in test [3] is PI3Kβ (Homo sapiens, UniProt P42338). The experiment in a line: ADP-Glo Assay II, PI3Kβ. The format is biochemical. As to conditions: read-out: IC50 for inhibition of PI3Kβ activity. The method, then: as §1, §2, §3, §4
IC50 results were analyzed by XLfit5 (Formula 205) of IDBS company.

Test [4] has as its system MCF-7 cells. The test is described as follows: In vitro test of cell activity, insulin-stimulated MCF-7 cells, ELISA-One. Format: cell-based. Particulars: Homo sapiens, MCF7, 2 hours compound, insulin 30 minutes. As for the experimental part: 1) MCF-7 cells were inoculated at the density of 2.5×10^4 cells/well into 96-well plates (the culture medium used should be a complete culture medium containing 10% FBS).
2) On the next day, the medium in each well was drawn out.
3) Insulin was dissolved in a culture medium without serum, added to the cultured cells and incubated for 30 minutes, wherein the final concentration of insulin was 10 mg/mL.
4) A lysis solution was prepared according to the following method during the waiting period for the reaction: • a) Enhancer solution was removed from the refrigerator to melt in advance. • b) Enhancer solution was diluted 10-fold with the 5× Lysis Buffer to give a concentrated lysis solution. • c) The concentrated lysis solution was diluted 5-fold with double distilled water to give the lysis solution.
5) The medium in each well was completely removed and each well was quickly rinsed with PBS once.
6) 150 μL of the freshly prepared lysis solution was added to each well and shaken at room temperature for 10 min.
7) After confirming that all cells were detached, the lysis solution together with cell debris was transferred into a 1.5 mL tube. […]
9) The number of strips of ELISA-one micro-well plate that is required was calculated. […]
15) The corresponding ELISA-One filter group was assembled and used to read the fluorescence signal intensity.
Background: An ELISA detects its analyte on a solid surface through an enzyme-linked reagent.

For orientation: IC50 means the midpoint of a concentration-inhibition curve.

Chain of PI3Kγ (P48736 whole entry): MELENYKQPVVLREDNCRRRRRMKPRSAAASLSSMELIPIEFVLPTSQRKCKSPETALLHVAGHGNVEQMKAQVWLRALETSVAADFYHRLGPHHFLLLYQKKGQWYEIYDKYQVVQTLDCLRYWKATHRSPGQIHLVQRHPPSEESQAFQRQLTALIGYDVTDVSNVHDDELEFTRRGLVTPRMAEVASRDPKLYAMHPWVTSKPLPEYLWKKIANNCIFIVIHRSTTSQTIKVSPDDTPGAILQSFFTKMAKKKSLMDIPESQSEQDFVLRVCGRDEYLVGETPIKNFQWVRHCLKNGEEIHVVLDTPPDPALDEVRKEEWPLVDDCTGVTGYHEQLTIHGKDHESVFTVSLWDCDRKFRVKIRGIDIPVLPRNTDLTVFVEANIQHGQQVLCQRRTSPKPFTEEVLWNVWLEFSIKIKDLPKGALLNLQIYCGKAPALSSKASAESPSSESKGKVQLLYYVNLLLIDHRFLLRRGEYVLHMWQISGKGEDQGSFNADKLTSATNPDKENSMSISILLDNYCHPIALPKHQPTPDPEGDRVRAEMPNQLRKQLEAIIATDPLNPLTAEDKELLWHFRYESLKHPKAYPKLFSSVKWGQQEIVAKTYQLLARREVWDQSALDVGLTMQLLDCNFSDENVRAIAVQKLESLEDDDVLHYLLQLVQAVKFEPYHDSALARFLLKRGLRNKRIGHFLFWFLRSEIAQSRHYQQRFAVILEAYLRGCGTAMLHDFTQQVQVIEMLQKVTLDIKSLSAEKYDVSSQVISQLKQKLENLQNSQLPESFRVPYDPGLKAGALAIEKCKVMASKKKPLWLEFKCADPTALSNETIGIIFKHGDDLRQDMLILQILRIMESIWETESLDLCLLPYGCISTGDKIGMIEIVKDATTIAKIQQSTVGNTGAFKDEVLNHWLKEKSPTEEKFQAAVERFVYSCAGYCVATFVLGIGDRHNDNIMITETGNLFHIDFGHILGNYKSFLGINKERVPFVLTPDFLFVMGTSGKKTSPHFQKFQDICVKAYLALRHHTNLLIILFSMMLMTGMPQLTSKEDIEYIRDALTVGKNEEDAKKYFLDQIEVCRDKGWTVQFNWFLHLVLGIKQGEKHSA
Chain of PI3Kβ (P42338 whole entry): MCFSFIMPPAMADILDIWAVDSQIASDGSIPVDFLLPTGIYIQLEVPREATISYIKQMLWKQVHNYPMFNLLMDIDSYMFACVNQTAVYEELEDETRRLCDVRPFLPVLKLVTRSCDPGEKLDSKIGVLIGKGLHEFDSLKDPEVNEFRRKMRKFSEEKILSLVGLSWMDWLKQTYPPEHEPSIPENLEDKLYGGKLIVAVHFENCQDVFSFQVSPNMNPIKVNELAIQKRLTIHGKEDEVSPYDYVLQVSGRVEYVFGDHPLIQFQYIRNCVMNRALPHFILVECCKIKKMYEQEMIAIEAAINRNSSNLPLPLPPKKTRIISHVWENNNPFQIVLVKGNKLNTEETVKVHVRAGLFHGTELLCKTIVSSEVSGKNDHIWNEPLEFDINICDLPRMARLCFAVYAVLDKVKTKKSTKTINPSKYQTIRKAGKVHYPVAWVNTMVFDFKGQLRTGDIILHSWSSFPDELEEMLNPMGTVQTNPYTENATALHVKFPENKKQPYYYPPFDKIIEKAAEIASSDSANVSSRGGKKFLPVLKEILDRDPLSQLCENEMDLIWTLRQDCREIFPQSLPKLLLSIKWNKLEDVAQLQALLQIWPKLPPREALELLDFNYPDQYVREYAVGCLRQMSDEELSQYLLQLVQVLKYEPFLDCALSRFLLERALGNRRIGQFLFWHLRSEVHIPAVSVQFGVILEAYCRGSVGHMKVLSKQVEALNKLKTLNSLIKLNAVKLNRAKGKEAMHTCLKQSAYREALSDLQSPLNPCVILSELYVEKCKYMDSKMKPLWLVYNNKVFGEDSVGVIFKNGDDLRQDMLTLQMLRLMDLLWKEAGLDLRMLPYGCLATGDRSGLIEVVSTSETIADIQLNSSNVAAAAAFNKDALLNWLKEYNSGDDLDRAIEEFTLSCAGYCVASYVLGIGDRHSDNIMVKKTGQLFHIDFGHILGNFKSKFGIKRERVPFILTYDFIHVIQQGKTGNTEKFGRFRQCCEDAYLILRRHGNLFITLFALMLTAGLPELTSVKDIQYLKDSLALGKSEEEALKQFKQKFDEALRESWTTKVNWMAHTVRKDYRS
Chain of PI3Kβ (P27986 whole entry partner): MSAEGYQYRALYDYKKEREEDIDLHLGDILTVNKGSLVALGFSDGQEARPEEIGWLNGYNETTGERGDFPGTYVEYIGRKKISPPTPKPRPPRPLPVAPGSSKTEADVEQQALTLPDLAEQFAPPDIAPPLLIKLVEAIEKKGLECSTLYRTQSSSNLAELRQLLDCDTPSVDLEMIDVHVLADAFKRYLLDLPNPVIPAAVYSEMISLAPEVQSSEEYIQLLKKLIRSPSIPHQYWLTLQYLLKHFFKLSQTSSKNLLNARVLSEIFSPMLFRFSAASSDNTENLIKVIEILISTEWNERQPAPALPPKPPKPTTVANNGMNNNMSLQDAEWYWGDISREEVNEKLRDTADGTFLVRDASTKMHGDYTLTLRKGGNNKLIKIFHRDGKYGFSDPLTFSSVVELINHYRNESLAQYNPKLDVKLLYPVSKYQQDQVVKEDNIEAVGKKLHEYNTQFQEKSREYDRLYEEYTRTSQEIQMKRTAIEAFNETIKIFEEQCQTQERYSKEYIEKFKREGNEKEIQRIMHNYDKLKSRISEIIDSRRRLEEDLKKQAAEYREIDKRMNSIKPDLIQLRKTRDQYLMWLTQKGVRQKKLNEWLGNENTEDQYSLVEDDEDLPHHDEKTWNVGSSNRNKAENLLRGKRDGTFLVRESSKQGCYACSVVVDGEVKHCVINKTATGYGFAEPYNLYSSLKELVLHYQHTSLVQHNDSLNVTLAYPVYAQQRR
T1 sequence (P42345 1360-2549): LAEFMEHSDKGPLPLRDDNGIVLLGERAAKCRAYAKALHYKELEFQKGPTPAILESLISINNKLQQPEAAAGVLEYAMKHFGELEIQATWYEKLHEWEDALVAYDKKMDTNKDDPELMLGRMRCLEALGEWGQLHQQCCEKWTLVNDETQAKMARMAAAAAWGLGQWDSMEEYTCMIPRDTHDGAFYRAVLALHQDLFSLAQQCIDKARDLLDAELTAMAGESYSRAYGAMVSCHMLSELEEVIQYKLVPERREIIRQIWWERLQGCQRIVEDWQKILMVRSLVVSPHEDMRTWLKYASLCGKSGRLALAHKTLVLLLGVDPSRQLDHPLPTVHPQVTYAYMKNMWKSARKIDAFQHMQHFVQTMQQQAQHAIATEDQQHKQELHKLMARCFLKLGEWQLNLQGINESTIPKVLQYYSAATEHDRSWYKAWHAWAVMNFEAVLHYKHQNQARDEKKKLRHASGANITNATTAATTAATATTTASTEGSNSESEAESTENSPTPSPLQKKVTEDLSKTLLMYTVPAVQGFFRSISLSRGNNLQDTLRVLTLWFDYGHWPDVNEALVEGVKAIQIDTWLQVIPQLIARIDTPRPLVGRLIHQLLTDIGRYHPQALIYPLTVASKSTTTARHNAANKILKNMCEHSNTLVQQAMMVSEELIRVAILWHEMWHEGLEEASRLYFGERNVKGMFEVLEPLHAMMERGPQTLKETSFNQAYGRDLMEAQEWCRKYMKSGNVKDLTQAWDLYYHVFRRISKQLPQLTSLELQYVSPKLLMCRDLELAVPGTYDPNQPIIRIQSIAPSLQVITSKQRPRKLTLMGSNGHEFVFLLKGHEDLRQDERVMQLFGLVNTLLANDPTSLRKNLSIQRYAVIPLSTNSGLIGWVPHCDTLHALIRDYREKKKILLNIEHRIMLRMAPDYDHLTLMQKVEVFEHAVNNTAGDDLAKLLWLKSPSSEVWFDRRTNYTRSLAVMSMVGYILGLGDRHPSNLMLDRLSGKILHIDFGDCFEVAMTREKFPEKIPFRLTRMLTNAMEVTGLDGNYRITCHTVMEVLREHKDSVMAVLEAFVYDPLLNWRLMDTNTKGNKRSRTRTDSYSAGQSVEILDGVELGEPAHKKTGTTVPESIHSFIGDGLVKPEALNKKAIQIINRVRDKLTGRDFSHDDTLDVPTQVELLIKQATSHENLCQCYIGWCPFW

`COc1ncc(-c2ccc3ncc(OCCN(C)C)c(=O)n3c2)cc1NS(=O)(=O)c1ccc(F)cc1Cl` [Compound 1]: the IC50 was greater than 200 nM in test [1], 7 ± 0.9 nM in test [2], 9.9 ± 2.7 nM in test [3] and no more than 50 nM in test [4].

The values are drawn from patent publication US10479789B2, “Pyrido[1,2-A]pyrimidone analog, crystal form thereof, intermediate thereof and preparation method therefor” (Chia Tai Tianqing Pharmaceutical Group Co., Ltd., priority 2015, dated 2019).
